Among the data in PubChem BioAssay (NCI) are GI50 and TGI values, retold here.

Some test systems named below: BT-549 breast; DU-145 prostate; EKVX NSCLC; HOP-62 NSCLC; MDA-MB-435; OVCAR-3 ovarian; SK-MEL-28 melanoma; SW-620 colon; UACC-62 melanoma; RPMI-8226 leukemia.
Common to all, as to assay: NCI tumour cell line growth inhibition, 48 h

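Where inhibition never reached the appropriate level, the endpoint shown equals the highest concentration tested. Otherwise, values were interpolated linearly from a five-concentration, 48-hour dose response in 96-well plates. The concentration for 50% growth inhibition is given as GI50. TGI: total growth inhibition.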 Where only a bound is given, the exact number is not on record here.

For the compound `COc1cc(/C=C2\Oc3cc(OCCCN4CCCC4)ccc3C2=O)cc(OC)c1`, the GI50 with BT-549 breast was 8.76 µM; in the test with DU-145 prostate, 3680 nM; in the test with EKVX NSCLC it was 9600 nM; in the test with HOP-62 NSCLC it was 3680 nM; in the test on MDA-MB-435, 10500 nM; with OVCAR-3 ovarian, 2740 nM. For the same compound, the GI50 in the test on SK-MEL-28 melanoma was 4120 nM; in the test with SW-620 colon, 3150 nM; in the test on UACC-62 melanoma it was 2780 nM. Further, the TGI worked out at 21.7 µM with BT-549 breast; 12.8 µM with DU-145 prostate; 21.9 µM with EKVX NSCLC; 15.3 µM in the test on HOP-62 NSCLC; 22.4 µM in the test with MDA-MB-435; 8.17 µM in the test on OVCAR-3 ovarian. In addition, the TGI in the test with SK-MEL-28 melanoma turned out to be 16 µM; in the test on SW-620 colon, 12.4 µM; in the test with UACC-62 melanoma it was 11.7 µM.
As for `O=C(N=Nc1c(O)[nH]c2ccccc12)c1oc2ccccc2c1CN1CCN(c2ccccc2)CC1`, the GI50 in the test on BT-549 breast is 5.81 µM; with DU-145 prostate it was 1220 nM; with EKVX NSCLC, 1910 nM; in the test with HOP-62 NSCLC it was 2700 nM; in the test on MDA-MB-435 it was 2070 nM; with OVCAR-3 ovarian it was 1020 nM. Besides, the GI50 was 1540 nM in the test on SK-MEL-28 melanoma, 1500 nM in the test on SW-620 colon and 2380 nM in the test with UACC-62 melanoma. Moreover, the TGI in the test with BT-549 breast came out at 21 µM; in the test with DU-145 prostate, 3.27 µM; in the test on EKVX NSCLC, 10.3 µM; in the test on HOP-62 NSCLC it was 10.9 µM; in the test on MDA-MB-435, 8.26 µM; with OVCAR-3 ovarian, 1.94 µM. Moreover, the TGI came out at 6.34 µM in the test on SK-MEL-28 melanoma, 7.47 µM in the test on SW-620 colon and 10 µM in the test with UACC-62 melanoma.
`Cn1cc(-c2csc(-c3cn(CCCCN4CCCCC4)c4ccc(F)cc34)n2)c2cccnc21`: the GI50 in the test with BT-549 breast was 1.67 µM; in the test on DU-145 prostate, 1760 nM; in the test on HOP-62 NSCLC, 14000 nM; in the test with MDA-MB-435, 1520 nM; with OVCAR-3 ovarian it was 1770 nM; in the test on SW-620 colon, 1830 nM. Also, the TGI stood at 3.13 µM in the test on BT-549 breast; 3.14 µM with DU-145 prostate; 31.1 µM in the test with HOP-62 NSCLC; 2.84 µM in the test with MDA-MB-435; 3.17 µM in the test on OVCAR-3 ovarian; 3.44 µM in the test with SW-620 colon.
With `NCCCCCCCCCCCn1c2c(c3ccccc3c1=O)C(=O)c1ccccc1-2`, the GI50 was 20.3 µM in the test on BT-549 breast; 4600 nM with DU-145 prostate; 22500 nM in the test with EKVX NSCLC; 2190 nM in the test on HOP-62 NSCLC; 11000 nM in the test on MDA-MB-435; 2100 nM in the test on OVCAR-3 ovarian. In addition, the GI50 with SK-MEL-28 melanoma is 2270 nM; in the test with SW-620 colon, 1960 nM; in the test with UACC-62 melanoma, 16900 nM. Moreover, the TGI in the test with BT-549 breast came to 41.4 µM; with DU-145 prostate, 14.8 µM; in the test with EKVX NSCLC it was 45.7 µM; with HOP-62 NSCLC it was 4.83 µM; with MDA-MB-435, 47.9 µM; in the test on OVCAR-3 ovarian it was 5.96 µM. Further, the TGI turned out to be 4.82 µM with SK-MEL-28 melanoma, 3.76 µM in the test on SW-620 colon and 35 µM in the test with UACC-62 melanoma.
For `Cc1cccc2nc3cccc(C(=O)NCCNCCNCCNC(=O)c4cccc5nc6cccc(C)c6nc45)c3nc12`, the GI50 with BT-549 breast was 1.73 µM; with EKVX NSCLC, 291 nM; with HOP-62 NSCLC, below 10 nM; in the test on MDA-MB-435 it was below 10 nM; in the test on OVCAR-3 ovarian it was below 10 nM; in the test with RPMI-8226 leukemia it was below 10 nM. In addition, the figures for the GI50 in the test on SK-MEL-28 melanoma, in the test with SW-620 colon and with UACC-62 melanoma were 101 nM, below 10 nM and 13.7 nM, respectively. For the same compound, the TGI in the test with BT-549 breast was 6.25 µM; with EKVX NSCLC it was 16.3 µM; in the test with HOP-62 NSCLC it was 1.19 µM; in the test on MDA-MB-435, 1.41 µM; in the test with OVCAR-3 ovarian, 2.91 µM; with RPMI-8226 leukemia, 769 nM. The results for the TGI in the test on SK-MEL-28 melanoma, with SW-620 colon and with UACC-62 melanoma were 4.37 µM, 3.5 µM and 2.01 µM, respectively.
With `Clc1nc(Cl)c2c3c(sc2n1)CCCC3`, the GI50 in the test on BT-549 breast is 3.63 µM; with DU-145 prostate it was 3710 nM; with EKVX NSCLC, above 100000 nM; with HOP-62 NSCLC, above 100000 nM; in the test with MDA-MB-435 it was 3650 nM; with OVCAR-3 ovarian, 3300 nM. Further, the values for the GI50 with SK-MEL-28 melanoma, with SW-620 colon and with UACC-62 melanoma were 6970 nM, 5370 nM and above 100000 nM, respectively. Besides, the TGI in the test with BT-549 breast is above 100 µM; with DU-145 prostate it was above 100 µM; in the test on EKVX NSCLC, above 100 µM; in the test with HOP-62 NSCLC, above 100 µM; in the test with MDA-MB-435 it was above 100 µM; in the test with OVCAR-3 ovarian, above 30.4 µM. In addition, the TGI in the test on SK-MEL-28 melanoma, in the test with SW-620 colon and in the test on UACC-62 melanoma was above 100 µM throughout.
With `COc1cc2nc(-c3ccc(Cl)cc3)cc(OCCCN3CCCC3)c2cc1OC`, the GI50 in the test on BT-549 breast is 1.77 µM; in the test on DU-145 prostate, 2150 nM; in the test with EKVX NSCLC it was 1210 nM; in the test with HOP-62 NSCLC, 1380 nM; in the test on MDA-MB-435, 2720 nM; in the test on OVCAR-3 ovarian it was 2710 nM. In addition, the GI50 in the test on SK-MEL-28 melanoma was 1480 nM; in the test with SW-620 colon, 3120 nM; with UACC-62 melanoma, 2030 nM. Besides, the TGI in the test with BT-549 breast amounted to 7.37 µM; with DU-145 prostate, 13.8 µM; in the test with EKVX NSCLC it was 12 µM; in the test on HOP-62 NSCLC it was 10.6 µM; in the test on MDA-MB-435, 10.8 µM; with OVCAR-3 ovarian, 13.1 µM. In addition, the TGI came out at 4.28 µM in the test with SK-MEL-28 melanoma, 13.1 µM in the test with SW-620 colon and 4.57 µM in the test with UACC-62 melanoma.
